Measured values from US5997933A, “N-(3,3-dimethylbutyl)-L-aspartyl-D-α-aminoalkanoic acid N-(S)-1-phenyl-1-alkanamide useful as a sweetening agent” (priority 1996, dated 1999).
Each block holds one molecule with its values, some of them ahead of it. Residues, ends and D or L forms follow the SMILES beside them.

Assays:
[1] = Sweetening potency: taste comparison of aqueous solutions with sucrose control solution (2%, 5% or 10%) by a group of eight experienced people; assay type: in vivo
From the text: The sweetening potency of the compounds described in the examples has been evaluated by a group of eight experienced people. For this, the compound, in aqueous solution at varying concentrations, is compared, with respect to taste, to a control solution of sucrose of concentration 2%, 5%, or 10%. The sweetening potency of the test compound compared with sucrose then corresponds to the weight ratio between the compound and sucrose for equal sweetening intensity, i.e. when the sweet tastes of the solution of the test compound and the control solution of sucrose are considered by a majority of people to have the same sweetening intensity.

[2] = Accelerated ageing in acidic medium (phosphate buffer pH 3, 70° C.), HPLC of product remaining; assay type: physicochemical; conditions: aqueous solution, read-out: half-life (time corresponding to 50% degradation) (converted)
Description: (§1) The stability of the compounds of the invention and aspartame was measured by determining, using high performance liquid chromatography (HPLC), the amount of product remaining after an accelerated ageing in acidic medium (phosphate buffer at pH 3) or in neutral medium (phosphate buffer at pH 7) and at the temperature of 70° C. The stability of the compound thus tested is evaluated by its half-life (time corresponding to 50% degradation).
Given in the annexed FIG. 1 is a comparative diagram of the stability curves of aspartame (curve 1) and of the N--(3,3-dimethylbutyl)-L-aspartyl-D-α-aminobutyric acid N--(S)-1-phenyl-1-propanamide of the present invention (curve 2) obtained during an accelerated ageing by heating their solutions in acidic medium at pH 3 (phosphate buffer) at 70° C.

[3] = Accelerated ageing in neutral medium (phosphate buffer pH 7, 70° C.), HPLC of product remaining; assay type: physicochemical; conditions: for half-life: phosphate buffer, read-out: half-life (time corresponding to 50% degradation) (converted)
Description: as §1
Given in the annexed FIG. 2 is a comparative diagram of the stability curves of aspartame (curve 1) and of the N-(3,3-dimethylbutyl)-L-aspartyl-D-α-aminobutyric acid N--(S)-1-phenyl-1-propanamide of the invention (curve 2) obtained during an accelerated ageing by heating their solutions in neutral media of pH 7 at 70° C.

[4] = Sweetening comparison with aspartame (equivalent sweetness of solutions / soft drink); assay type: in vivo; conditions: for concentration of aqueous solution of equivalent sweetening potency: 20 mg/L compound equivalent to 550 mg/L aspartame; for quantity of sweetening agent in one liter of soft drink for replacement: identical organoleptic qualities
Description: From the fact of their high sweetening potency, another advantage of the compounds of the invention compared to aspartame is to allow, in their application to food products, the use of very low quantities of active agent. It is therefore for example that it is possible to replace, in one liter of soft drink, 550 mg of aspartame by about 20 mg of the N-(3,3-dimethylbutyl)-L-aspartyl-D-α-aminobutyric acid N--(S)-1-phenyl-1-propanamide of the invention, and to therefore reduce by about 27 times the quantities of sweetening agent consumed, always in maintaining the identical organoleptic qualities.

[5] = cited from earlier work
[6] = with respect to a 2% sucrose solution

SMILES: CC[C@H](NC(=O)[C@H](NC(=O)[C@H](CC(=O)O)NCCC(C)(C)C)C(C)C)c1ccccc1 [N-(3,3-dimethylbutyl)-L-aspartyl-D-valine N--(S)-1-phenyl-1-propanamide]
Sweetening potency [1, 6]: about 3,000 times that of sucrose on a weight basis
Sweetening potency ([1]; with respect to a 2% sucrose solution, listed as Y = (CH3)2 CH, R" = (S) CH(C2 H5) C6 H5): 3,000 times that of sucrose on a wei

SMILES: COC[C@H](NC(=O)[C@H](NC(=O)[C@H](CC(=O)O)NCCC(C)(C)C)C(C)C)c1ccccc1 [N-(3,3-dimethylbutyl)-L-aspartyl-D-valine N--(S)-1-phenyl-2-methoxy-1-ethanamide]
Sweetening potency [1, 6]: about 4,000 times that of sucrose on a weight basis
Sweetening potency ([1]; with respect to a 2% sucrose solution, listed as Y = (CH3)2 CH, R" = (R) CH(CH2 OCH3)C6 H5): 4,000 times that of sucrose on a wei

half-life [2]: ~72 h
stability compared with aspartame ([3]; pH 7, 70° C., ratio to aspartame): about 1,700 times
half-life ([3]; pH 7, 70° C.): ~288 h
SMILES: CC[C@H](NC(=O)[C@@H](CC)NC(=O)[C@H](CC(=O)O)NCCC(C)(C)C)c1ccccc1 [N-(3,3-dimethylbutyl)-L-aspartyl-D-α-aminobutyric acid N--(S)-1-phenyl-1-propanamide]
Sweetening potency ([1]; by comparison with a 5% solution of sucrose): ~6,000 times that of sucrose on a wei
Sweetening potency ([1]; by comparison with a 10% solution of sucrose): ~5,000 times that of sucrose on a wei
Sweetening potency ([1]; with respect to a 2% sucrose solution, listed as Y = C2 H5, R" = (S) CH(C2 H5) C6 H5): 8,000 times that of sucrose on a wei
concentration of aqueous solution of equivalent sweetening potency [4]: 20 µg/mL
sweetening potency compared with aspartame ([4]; 20 mg/L of compound vs 550 mg/L of aspartame, aqueous solution): about 27 times
quantity of sweetening agent in one liter of soft drink for replacement [4]: about 20 mg
reduction of quantity of sweetening agent consumed vs aspartame ([4]; soft drink, vs aspartame): about 27 times

SMILES: CC[C@@H](NC(=O)[C@H](CC(=O)O)NCCC(C)(C)C)C(=O)N[C@@H](COC)c1ccccc1 [N-(3,3-dimethylbutyl)-L-aspartyl-D-α-aminobutyric acid N--(S)-1-phenyl-2-methoxy-1-ethanamide]
Sweetening potency [1, 6]: about 4,000 times that of sucrose on a weight basis
Sweetening potency ([1]; with respect to a 2% sucrose solution, listed as Y = C2 H5, R" = (R) CH(CH2 OCH3)C6 H5): 4,000 times that of sucrose on a wei

SMILES: C[C@@H](NC(=O)[C@H](CC(=O)O)NCCC(C)(C)C)C(=O)NC(C1CC1)C1CC1 [N-(3,3-dimethylbutyl)-L-aspartyl-N-(dicyclopropylcarbinyl)-D-alaninamide]
sweetening potency (prior art, FR 92 13615) [5, 6]: 2,500 times that of sucrose on a weight basis

SMILES: CC[C@@H](NC(=O)[C@H](CC(=O)O)NCCC(C)(C)C)C(=O)N[C@@H](C)c1ccccc1 [Y = C2 H5, R" = (S) CH(CH3)C6 H5]
Sweetening potency [1, 6]: 2,000 times that of sucrose on a wei

half-life [2]: ~24 h
stability in neutral solution ([3]; neutral solution, pH about 7): very little stable
half-life ([3]; pH 7, 70° C.): 0.167 h
SMILES: COC(=O)[C@H](Cc1ccccc1)NC(=O)[C@@H](N)CC(=O)O [aspartame, L-aspartyl-L-phenylalanine methyl ester, reference compound] (HELM PEPTIDE1{D.F.[CO[*:1]]}$$$$V2.0)
concentration of aqueous solution of equivalent sweetening potency [4]: 550 µg/mL
quantity of sweetening agent in one liter of soft drink for replacement [4]: 550 mg
sweetening potency (prior art) ([5]; aspartame, background, sucrose concentration not stated): 120 to 180 times that of sucrose on a weight basis
